Measured values from ChEMBL document CHEMBL1201862, “PubChem BioAssay data set” (2004).
Activity calls are given as the source filed them.

What was measured:
HEK293 = assay: inhibitors of LMP1-driven NF-kB reporter, dose response, cell-based, HEK293, luciferase, cherry-pick (AID 588343); type: functional; conditions: Homo sapiens
[1] = LGR2 antagonists, dose response, cell-based, HEK293, CRE-luciferase reporter, cherry pick, set 2 (AID 743343); type: functional;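 also: transfected cells were stimulated with diluted bursicon conditioned medium after compound addition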
[2] = A549 cell cytotoxicity, dose response, cytotoxicity control, plate reader, cherry-pick, antagonist series (AID 743412); type: functional, cell-based
[3] = MC4R antagonists, dose response, counter-screen for LGR2 antagonist project, cell-based, plate reader, cherry pick (AID 743444); type: functional;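 also: transfected HEK 293 cells stimulated with alpha-MSH peptide; potency of inhibitors of the alpha-MSH evoked signal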
[4] = miR-122 activators in hepatoma reporter cells, dose response, cell-based, Huh7 psiCHECK-miR122, Renilla luciferase, cherry-picked (AID 651956); type: functional;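 also: huh7 hepatoma cells stably carrying a psiCHECK-2 miR-122 sensor plasmid; renilla luciferase signal reporting endogenous miR-122 activity after 48 h compound exposure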
Beta-galactosidase = Beta-galactosidase (Escherichia coli, UniProt Q8VNN2); assay: Dose response counterscreen for EBI2 assay utilizing the enzyme, b-galactosidase.; type: functional
[5] = target: T1, Sentrin-specific protease 8 (Homo sapiens, UniProt Q96LD8); type: functional
T1 sequence (Q96LD8 whole entry): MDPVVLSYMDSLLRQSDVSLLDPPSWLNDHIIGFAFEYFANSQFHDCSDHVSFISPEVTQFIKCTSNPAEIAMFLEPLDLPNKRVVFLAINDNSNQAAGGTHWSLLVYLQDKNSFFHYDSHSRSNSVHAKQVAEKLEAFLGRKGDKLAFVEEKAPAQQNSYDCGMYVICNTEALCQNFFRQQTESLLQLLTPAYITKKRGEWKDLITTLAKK

Protein RecA = target: T2, Protein RecA (Mycobacterium tuberculosis, UniProt P9WHJ3); assay: Fluorescence Cell-Free Homogeneous Dose Retest to Identify Inhibitors of RecA-Intein Splicing Activity. [Related pubchem assays (depositor defined):AID2097, AID2223, AID489010, AID492950]; type: functional
T2 sequence (P9WHJ3 whole entry): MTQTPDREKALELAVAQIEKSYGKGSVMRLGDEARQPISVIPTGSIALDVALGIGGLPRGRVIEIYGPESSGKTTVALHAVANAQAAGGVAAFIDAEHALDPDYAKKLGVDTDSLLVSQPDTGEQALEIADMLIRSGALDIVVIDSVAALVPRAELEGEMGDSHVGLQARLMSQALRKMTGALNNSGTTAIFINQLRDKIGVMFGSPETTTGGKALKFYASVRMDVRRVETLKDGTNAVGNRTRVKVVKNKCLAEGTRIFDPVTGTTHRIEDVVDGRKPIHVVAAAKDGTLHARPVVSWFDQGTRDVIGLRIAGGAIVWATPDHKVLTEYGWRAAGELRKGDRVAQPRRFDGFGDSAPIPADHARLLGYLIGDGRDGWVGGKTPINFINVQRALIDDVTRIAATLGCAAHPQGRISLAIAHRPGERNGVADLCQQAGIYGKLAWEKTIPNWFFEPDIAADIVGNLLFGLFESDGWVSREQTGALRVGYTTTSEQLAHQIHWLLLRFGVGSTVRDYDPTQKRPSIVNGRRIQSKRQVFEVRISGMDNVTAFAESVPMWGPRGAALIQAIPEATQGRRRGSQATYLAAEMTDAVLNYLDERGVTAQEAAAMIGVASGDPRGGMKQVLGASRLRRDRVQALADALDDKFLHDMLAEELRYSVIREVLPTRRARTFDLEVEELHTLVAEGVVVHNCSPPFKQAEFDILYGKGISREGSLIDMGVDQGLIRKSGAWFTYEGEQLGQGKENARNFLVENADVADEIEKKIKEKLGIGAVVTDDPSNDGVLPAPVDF

[6] = target: T3, Replicative DNA helicase DnaB (Mycobacterium tuberculosis, UniProt P9WMR3); assay: DnaB intein splicing inhibitors, dose response, biochemical, cell-free fluorescence (AID 449749); type: functional
T3 sequence (P9WMR3 whole entry): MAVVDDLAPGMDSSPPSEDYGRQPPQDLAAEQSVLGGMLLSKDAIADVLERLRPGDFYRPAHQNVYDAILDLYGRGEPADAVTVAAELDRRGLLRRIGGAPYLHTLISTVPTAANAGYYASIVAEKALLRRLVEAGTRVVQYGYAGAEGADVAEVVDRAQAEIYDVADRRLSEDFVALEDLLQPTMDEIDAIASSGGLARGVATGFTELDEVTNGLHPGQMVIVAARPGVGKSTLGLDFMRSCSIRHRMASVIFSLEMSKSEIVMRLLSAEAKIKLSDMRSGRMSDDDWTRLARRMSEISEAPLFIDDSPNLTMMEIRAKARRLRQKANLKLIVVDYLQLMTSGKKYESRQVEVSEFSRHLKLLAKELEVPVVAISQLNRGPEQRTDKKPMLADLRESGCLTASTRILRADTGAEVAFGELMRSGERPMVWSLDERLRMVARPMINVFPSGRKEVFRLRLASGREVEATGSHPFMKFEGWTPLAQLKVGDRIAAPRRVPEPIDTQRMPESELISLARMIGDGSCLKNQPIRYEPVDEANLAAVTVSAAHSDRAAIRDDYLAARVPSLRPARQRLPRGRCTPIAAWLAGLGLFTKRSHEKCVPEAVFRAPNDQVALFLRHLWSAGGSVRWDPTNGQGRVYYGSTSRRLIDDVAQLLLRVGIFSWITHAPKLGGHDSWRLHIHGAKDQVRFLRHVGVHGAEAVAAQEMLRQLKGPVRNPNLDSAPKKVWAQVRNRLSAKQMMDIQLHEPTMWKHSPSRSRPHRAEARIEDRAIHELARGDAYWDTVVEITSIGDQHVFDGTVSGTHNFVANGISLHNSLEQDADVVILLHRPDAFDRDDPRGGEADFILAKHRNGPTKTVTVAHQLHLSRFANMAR

[7] = target: T1, Sentrin-specific protease 8; type: functional; remark: listed apart in the source
[8] = target: T4, Microphthalmia-associated transcription factor (Homo sapiens, UniProt O75030); assay: TRPM1 promoter luciferase signal decrease, dose response, MITF inhibitor project, cell-based, SK-MEL-5, cherry-picked, set 3 (AID 493073); type: functional
T4 sequence (O75030 whole entry): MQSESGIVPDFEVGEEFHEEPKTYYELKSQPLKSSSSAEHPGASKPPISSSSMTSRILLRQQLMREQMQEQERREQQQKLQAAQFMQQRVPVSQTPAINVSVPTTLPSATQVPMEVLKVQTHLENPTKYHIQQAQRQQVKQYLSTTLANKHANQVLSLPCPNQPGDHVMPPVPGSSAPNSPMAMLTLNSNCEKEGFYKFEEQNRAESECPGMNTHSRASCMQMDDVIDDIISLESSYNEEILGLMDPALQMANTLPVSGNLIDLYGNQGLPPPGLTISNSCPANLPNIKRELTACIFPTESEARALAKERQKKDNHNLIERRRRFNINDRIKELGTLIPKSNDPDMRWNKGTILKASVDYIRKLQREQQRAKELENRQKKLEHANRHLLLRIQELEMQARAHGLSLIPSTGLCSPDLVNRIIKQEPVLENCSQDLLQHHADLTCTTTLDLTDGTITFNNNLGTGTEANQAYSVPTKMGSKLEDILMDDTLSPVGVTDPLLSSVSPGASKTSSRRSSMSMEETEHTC

Vero = assay: cells; type: functional; conditions: Chlorocebus sabaeus
[9] = target: Heat shock protein HSP 90-alpha (Homo sapiens, UniProt P07900); type: functional, organism-based
[10] = inhibitors of intracellular T. cruzi replication, confirmation, NIH3T3 host cells, beta-gal luminescence (AID 2044); type: functional, cell-based;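 also: intracellular parasites grown in NIH/3T3 mouse fibroblasts as host cells; luminescent beta-galactosidase reporter signal from transgenic T. cruzi replicating inside host cells; inhibitors lower the luminescence signal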
[11] = cytotoxicity toward NIH3T3 fibroblasts, dose response, counter-screen, cell-based, ATP luminescence, mouse fibroblasts (AID 2010); type: functional;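 also: cells exposed to compound for about 90 hours before reading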
[12] = target: T5, Histone-lysine N-methyltransferase NSD2 (Homo sapiens, UniProt O96028); type: biochemical
T5 sequence (O96028 whole entry): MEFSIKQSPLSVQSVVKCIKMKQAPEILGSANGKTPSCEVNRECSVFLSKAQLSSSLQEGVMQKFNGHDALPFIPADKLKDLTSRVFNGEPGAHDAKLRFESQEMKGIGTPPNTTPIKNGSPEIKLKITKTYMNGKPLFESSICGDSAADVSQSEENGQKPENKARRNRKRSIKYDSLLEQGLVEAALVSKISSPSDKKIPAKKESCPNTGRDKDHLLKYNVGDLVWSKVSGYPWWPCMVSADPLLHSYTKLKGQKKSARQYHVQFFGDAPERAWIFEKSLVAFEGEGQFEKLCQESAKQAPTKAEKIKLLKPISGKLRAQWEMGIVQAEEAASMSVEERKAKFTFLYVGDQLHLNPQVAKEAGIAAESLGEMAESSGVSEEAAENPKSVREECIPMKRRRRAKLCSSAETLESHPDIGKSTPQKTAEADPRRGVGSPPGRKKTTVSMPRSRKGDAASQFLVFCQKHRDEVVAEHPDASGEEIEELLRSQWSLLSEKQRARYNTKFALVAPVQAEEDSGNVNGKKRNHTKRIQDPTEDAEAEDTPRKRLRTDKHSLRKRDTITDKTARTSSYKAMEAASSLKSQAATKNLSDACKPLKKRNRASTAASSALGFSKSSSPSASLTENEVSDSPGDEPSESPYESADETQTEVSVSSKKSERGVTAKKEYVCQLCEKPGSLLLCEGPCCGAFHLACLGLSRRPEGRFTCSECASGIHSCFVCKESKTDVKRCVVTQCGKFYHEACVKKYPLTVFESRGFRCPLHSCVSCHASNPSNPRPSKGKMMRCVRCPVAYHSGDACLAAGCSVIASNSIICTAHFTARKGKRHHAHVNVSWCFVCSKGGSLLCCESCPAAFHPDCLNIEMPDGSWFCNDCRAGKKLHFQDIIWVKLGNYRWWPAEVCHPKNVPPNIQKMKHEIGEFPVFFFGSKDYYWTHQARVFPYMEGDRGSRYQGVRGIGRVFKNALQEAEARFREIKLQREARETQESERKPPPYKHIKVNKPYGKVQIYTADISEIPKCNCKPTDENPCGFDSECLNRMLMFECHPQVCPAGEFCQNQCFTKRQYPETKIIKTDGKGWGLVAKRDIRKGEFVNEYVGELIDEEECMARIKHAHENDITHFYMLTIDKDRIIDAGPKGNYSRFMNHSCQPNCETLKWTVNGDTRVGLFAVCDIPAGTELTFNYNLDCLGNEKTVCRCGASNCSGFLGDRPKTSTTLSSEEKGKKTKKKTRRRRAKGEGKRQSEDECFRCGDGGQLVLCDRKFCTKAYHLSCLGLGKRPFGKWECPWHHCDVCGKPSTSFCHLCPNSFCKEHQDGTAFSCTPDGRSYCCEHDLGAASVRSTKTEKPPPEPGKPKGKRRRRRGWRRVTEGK

BJ [13] = assay: cells; type: functional, cell-based; conditions: Homo sapiens
BJ [14] = assay: cytotoxicity toward BJ-TERT fibroblasts, dose response, cell-based, RAS-independent, luminescence (AID 1933); type: functional; conditions: Homo sapiens
[15] = Luminescence Cell-Based Dose Response HTS to Identify Inhibitors of 5'UTR Stem-Loop Driven Prion Protein mRNA Translation in H4 Neuroglioblastoma Cells. [Related pubchem assays: 1827 (Project Summary), 1813 (Primary HTS)]; type: functional
BJ [16] = assay: cytotoxicity toward BJ-TERT-LT-ST fibroblasts, dose response, cell-based, RAS-independent, luminescence (AID 1935); type: functional; conditions: Homo sapiens;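 also: BJ fibroblasts immortalized with TERT plus LT and ST oncogenes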
[17] = inhibitors of SNCA 5'UTR-driven reporter translation, confirmation, H4 neuroglioma cells, luminescence (AID 1988); type: functional, cell-based
[18] = inhibitors of firefly luciferase expression or activity, dose response, H4 neuroglioma cells, luminescence (AID 1990); type: functional, cell-based
[19] = cytotoxicity toward DRD oncogenic fibroblasts, dose response, cell-based, non-viral oncogenic, luminescence (AID 1934); type: functional; conditions: Homo sapiens

Beta-galactosidase, sequence (Q8VNN2 whole entry): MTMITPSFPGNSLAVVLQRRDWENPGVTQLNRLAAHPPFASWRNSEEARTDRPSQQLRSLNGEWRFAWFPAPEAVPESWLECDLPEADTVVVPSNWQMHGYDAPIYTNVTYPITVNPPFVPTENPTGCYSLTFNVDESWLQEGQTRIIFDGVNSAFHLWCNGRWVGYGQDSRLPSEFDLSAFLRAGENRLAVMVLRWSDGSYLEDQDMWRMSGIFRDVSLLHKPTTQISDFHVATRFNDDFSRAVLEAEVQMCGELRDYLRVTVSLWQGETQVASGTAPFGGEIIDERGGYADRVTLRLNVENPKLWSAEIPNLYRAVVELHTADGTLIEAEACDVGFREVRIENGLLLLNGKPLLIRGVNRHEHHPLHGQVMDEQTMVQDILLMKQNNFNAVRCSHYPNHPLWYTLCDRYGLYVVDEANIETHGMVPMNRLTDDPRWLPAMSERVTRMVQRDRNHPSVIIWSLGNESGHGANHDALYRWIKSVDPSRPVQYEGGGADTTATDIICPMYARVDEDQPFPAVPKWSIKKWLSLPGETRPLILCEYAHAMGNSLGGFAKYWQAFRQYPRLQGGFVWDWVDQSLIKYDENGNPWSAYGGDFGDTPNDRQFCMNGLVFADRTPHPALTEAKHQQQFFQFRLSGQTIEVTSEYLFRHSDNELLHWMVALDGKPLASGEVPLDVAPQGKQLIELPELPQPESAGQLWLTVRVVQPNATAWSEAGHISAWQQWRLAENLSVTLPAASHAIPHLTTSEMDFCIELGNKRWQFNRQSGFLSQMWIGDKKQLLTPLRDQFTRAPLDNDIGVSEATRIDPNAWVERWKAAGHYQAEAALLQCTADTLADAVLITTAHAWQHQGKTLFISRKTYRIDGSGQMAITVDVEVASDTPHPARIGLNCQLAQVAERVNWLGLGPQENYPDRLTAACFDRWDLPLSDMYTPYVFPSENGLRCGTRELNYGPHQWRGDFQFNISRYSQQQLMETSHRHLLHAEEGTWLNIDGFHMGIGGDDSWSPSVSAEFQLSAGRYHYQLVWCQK

COc1ccc(-n2cc(C(=O)c3ccccc3O)cn2)cc1
AC50 (HEK293): 2.43 µM (active) | AC50 [1]: 8.21 µM (active) | AC50 [2]: > 52 µM (inactive) | AC50 [3]: 10.7 µM (active)

O=C(CNCCC1=CCCCC1)Nc1ccccc1N1CCCCCC1
AC50 [4]: 2.54 µM (active)

O=C(COc1ccc(Cl)cc1)N1CCN(S(=O)(=O)c2ccc(Cl)cc2)CC1
IC50 (Beta-galactosidase): > 80 µM (inactive)

Cc1[nH][nH]c(=O)c1C(c1ccc(-c2ccc(Cl)c(Cl)c2)o1)c1c(C)[nH][nH]c1=O
IC50 [5]: 18.8 µM (active) | EC50 (Protein RecA): 0.305 µM (active) | AC50 [6]: 0.281 µM (active) | IC50 [7]: 8.73 µM (active)

O=[N+]([O-])/C=C\c1ccc(N2CCCC2)c(F)c1
AC50 [8]: 13.4 µM (active) | CC50 (Vero): 18.6 µM (active) | AC50 [9]: 8.22 µM (active)

CNC(=O)C[C@@H]1CC[C@@H]2[C@@H](COc3ccc(NC(=O)c4cccc(OC)c4)cc3C(=O)N2C)O1
AC50 [4]: 67.7 µM (active)

O=C(Nc1ccccc1N1CCCC1)c1ccc([N+](=O)[O-])o1
IC50 [5]: 31.3 µM (active) | EC50 [10]: 0.105 µM (active) | EC50 [11]: 13.5 µM (active) | IC50 [7]: 66.9 µM (inactive)

CCN1CCN(C(=O)/C=C/c2ccc(C(C)C)cc2)CC1
IC50 (Beta-galactosidase): > 80 µM (inactive)

O=C(c1ccco1)N1CCN(C(=O)c2cc3c(s2)-c2ccccc2OC3)CC1
IC50 (Beta-galactosidase): > 80 µM (inactive)

COC(=O)CCCC1=CC2=CC(=O)C(C)(OC(=O)c3cccs3)C(=O)C2=CN1CCCCO (stereo not given)
IC50 [5]: 7.79 µM (active) | IC50 [7]: 5.99 µM (active)

CO[C@@H]1CN(C)C(=O)c2cc(NC(C)=O)ccc2OC[C@@H](C)N(Cc2ccc(F)cc2)C[C@@H]1C
AC50 [1]: 42.9 µM (active) | AC50 [2]: > 47 µM (inactive) | AC50 [3]: 10.7 µM (active)

COc1ccc(-c2ccc(C(c3c(C)n[nH]c3O)c3c(C)n[nH]c3O)o2)c([N+](=O)[O-])c1
IC50 [5]: 28.7 µM (active) | AC50 [12]: > 20 µM (inactive) | IC50 [7]: 15.6 µM (active)

Cc1ccc(C)c(N/C([S-])=C(/C(=O)c2ccc(Cl)s2)[n+]2ccccc2)c1
IC50 [5]: 9.94 µM (active) | IC50 [7]: 5.82 µM (active)

N#CC(=C1CCCC1)c1nc(-c2ccc(Cl)cc2)cs1
IC50 (Beta-galactosidase): > 80 µM (inactive)

C/C=C/c1ccc2c(c1)O[C@H](CN(C)C(=O)Cc1cccnc1)[C@H](C)CN([C@H](C)CO)S2(=O)=O
AC50 [4]: 10.7 µM (active)

COc1ccccc1N1CCN(C(=O)c2ccc3[nH]c(C)c(C)c3c2)CC1
EC50 (BJ [13]): 68.5 µM (active) | EC50 (BJ [14]): 2.61 µM (active) | EC50 [15]: 2.14 µM (active) | EC50 (BJ [16]): 2.22 µM (inconclusive) | EC50 [17]: 0.19 µM (active) | EC50 [18]: 3.53 µM (active) | IC50 (Beta-galactosidase): > 80 µM (inactive) | EC50 [19]: 2.4 µM (active)
